Molecular target: α-glucosidase
Experiment: colorimetric p-NPG hydrolysis assay, […] nm, triplicate
Assay type: biochemical, Saccharomyces cerevisiae

12-(3-carboxyfuran-2-yl)-trinorlabda-5,9-dien-15-oic acid [parasitic acid]
IC50: 36.29 ± 1.06 mg/L

From PMC12735834, “Novel Trinorditerpene from Dysoxylum parasiticum (Osbeck) Kosterm: Leaf Extract with Cytotoxic, Antioxidant and α-Glucosidase Inhibitory Activities” (Molecules, 2025)
